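96-well plates; 48 h exposure; 5 concentrations. Endpoints by linear interpolation between flanking doses. Not reached: highest tested concentration assigned. Here, GI50 denotes the concentration required for 50% inhibition of growth.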 Calls of active or inactive are those of the source. No stated cut-off is given here; in the data, active = GI50 up to about 1.1 µM and inactive = higher.
Tests used:
Experiment in all cases: NCI-60 cell line screen, 48 h
[1] = tested on: 786-0
[2] = tested on: A549
[3] = tested on: ACHN
[4] = tested on: CAKI-1
[5] = tested on: HCT-116
[6] = tested on: HCT-15
[7] = tested on: IGROV-1
[8] = tested on: LOX IMVI
[9] = tested on: MDA-MB-435
[10] = tested on: MOLT-4
[11] = tested on: NCI/ADR-RES
[12] = tested on: OVCAR-4
[13] = tested on: OVCAR-8
[14] = tested on: SK-MEL-28
[15] = tested on: SK-OV-3
[16] = tested on: SR
[17] = tested on: SW-620
[18] = tested on: TK-10
[19] = tested on: UO-31
[20] = tested on: CCRF-CEM

For `Cc1cc(S(=O)(=O)O)c(NC(=O)c2oc3cc(O)ccc3c(=O)c2C)cc1Cl`, the GI50 [1] was > 100 µM (inactive), the GI50 [2] was > 100 µM (inactive) and the GI50 [3] was > 100 µM (inactive). For the same compound, the GI50 [4] was > 100 µM (inactive), the GI50 [5] was > 100 µM (inactive) and the GI50 [6] was greater than 100 µM. The GI50 [7] was > 100 µM (inactive), the GI50 [8] was > 100 µM (inactive) and the GI50 [9] was > 100 µM (inactive). For the same compound, the GI50 [10] was > 100 µM (inactive), the GI50 [11] was > 100 µM (inactive) and the GI50 [12] was > 100 µM (inactive). For the same compound, the GI50 [13] was > 100 µM (inactive), the GI50 [14] was > 100 µM (inactive) and the GI50 [15] was > 100 µM (inactive). The GI50 [16] was > 10 µM (inactive), the GI50 [17] was > 100 µM (inactive) and the GI50 [18] was > 100 µM (inactive). The GI50 [19] was > 100 µM (inactive).
In the case of `CC(C)(C)/C(O)=C\c1nc2cc(F)c(F)cc2[nH]c1=O`, the GI50 [1] is reported as > 100 µM (inactive), the GI50 [3] is reported as > 100 µM (inactive) and the GI50 [4] is reported as > 100 µM (inactive). The GI50 [20] was > 100 µM (inactive), the GI50 [5] was > 100 µM (inactive) and the GI50 [6] was greater than 100 µM. For the same compound, the GI50 [7] was > 100 µM (inactive), the GI50 [8] was > 100 µM (inactive) and the GI50 [9] was > 100 µM (inactive). For the same compound, the GI50 [10] was 48.4 µM (inactive), the GI50 [11] was > 100 µM (inactive) and the GI50 [12] was > 100 µM (inactive). For the same compound, the GI50 [13] was > 100 µM (inactive), the GI50 [14] was > 100 µM (inactive) and the GI50 [15] was > 100 µM (inactive). For the same compound, the GI50 [16] was > 100 µM (inactive), the GI50 [17] was > 100 µM (inactive) and the GI50 [18] was > 100 µM (inactive). The GI50 [19] was > 100 µM (inactive).
For `O=C(O)C12CCC(CC1=O)C2` (centres undefined), the GI50 [1] was > 100 µM (inactive), the GI50 [2] was > 100 µM (inactive) and the GI50 [3] was > 100 µM (inactive). For the same compound, the GI50 [4] was > 100 µM (inactive), the GI50 [20] was > 100 µM (inactive) and the GI50 [6] was greater than 100 µM. For the same compound, the GI50 [7] was > 100 µM (inactive), the GI50 [8] was > 100 µM (inactive) and the GI50 [9] was > 100 µM (inactive). The GI50 [10] was > 100 µM (inactive), the GI50 [11] was > 100 µM (inactive) and the GI50 [12] was > 100 µM (inactive). For the same compound, the GI50 [13] was > 100 µM (inactive), the GI50 [14] was > 100 µM (inactive) and the GI50 [15] was > 100 µM (inactive). For the same compound, the GI50 [16] was > 100 µM (inactive), the GI50 [17] was > 100 µM (inactive) and the GI50 [18] was > 100 µM (inactive). The GI50 [19] was > 100 µM (inactive).
`COc1cc2c(cc1OC)C1C=NC(C2)c2cc(OC)c(OC)cc21` (centres undefined) was tested, and the GI50 [1] was > 100 µM (inactive), the GI50 [2] was 78.7 µM (inactive) and the GI50 [3] was > 100 µM (inactive). For the same compound, the GI50 [4] was 97.7 µM (inactive), the GI50 [5] was > 100 µM (inactive) and the GI50 [6] was 85.9 µM. For the same compound, the GI50 [7] was 96.4 µM (inactive), the GI50 [8] was > 100 µM (inactive) and the GI50 [9] was > 100 µM (inactive). For the same compound, the GI50 [10] was 40.5 µM (inactive), the GI50 [11] was > 100 µM (inactive) and the GI50 [12] was > 100 µM (inactive). The GI50 [13] was 96.2 µM (inactive), the GI50 [14] was > 100 µM (inactive) and the GI50 [15] was > 100 µM (inactive). The GI50 [16] was 69.3 µM (inactive), the GI50 [17] was > 100 µM (inactive) and the GI50 [18] was > 100 µM (inactive). For the same compound, the GI50 [19] was 60.1 µM (inactive).
In the case of `CCN(CC)/[N+]([O-])=N/OS(=O)(=O)N(C)C`, the GI50 [1] is reported as > 100 µM (inactive), the GI50 [2] is reported as > 100 µM (inactive) and the GI50 [3] is reported as > 100 µM (inactive). The GI50 [4] was > 100 µM (inactive), the GI50 [20] was > 100 µM (inactive) and the GI50 [5] was > 100 µM (inactive). For the same compound, the GI50 [6] was greater than 100 µM, the GI50 [7] was > 100 µM (inactive) and the GI50 [8] was > 100 µM (inactive). For the same compound, the GI50 [9] was > 100 µM (inactive), the GI50 [10] was > 100 µM (inactive) and the GI50 [11] was > 100 µM (inactive). The GI50 [12] was > 100 µM (inactive), the GI50 [13] was > 100 µM (inactive) and the GI50 [14] was > 100 µM (inactive). The GI50 [15] was > 100 µM (inactive), the GI50 [16] was > 100 µM (inactive) and the GI50 [17] was > 100 µM (inactive). The GI50 [18] was > 100 µM (inactive).
With `CC(C)CCCC(C)[C@H]1CC[C@H]2N/C(=N/c3ccccc3)CCC[C@]12C` (some centres undefined) the GI50 [1] was 1.77 µM (inactive), the GI50 [2] was 2.81 µM (inactive) and the GI50 [4] was 2.29 µM (inactive). For the same compound, the GI50 [20] was 2.51 µM (inactive), the GI50 [5] was 2.28 µM (inactive) and the GI50 [6] was 1.07 µM. The GI50 [7] was 1.61 µM (inactive), the GI50 [8] was 0.863 µM (active) and the GI50 [9] was 1.88 µM (inactive). The GI50 [10] was 1.64 µM (inactive), the GI50 [11] was 1.68 µM (inactive) and the GI50 [12] was 3.56 µM (inactive). For the same compound, the GI50 [13] was 0.893 µM (active), the GI50 [14] was 2.09 µM (inactive) and the GI50 [15] was 2.03 µM (inactive). The GI50 [16] was 1.77 µM (inactive), the GI50 [17] was 3.21 µM (inactive) and the GI50 [18] was 2.62 µM (inactive). The GI50 [19] was 1.62 µM (inactive).

Reference: ChEMBL document CHEMBL1201862, “PubChem BioAssay data set” (2004)
